In patent publication US4943570A, “Benzimidazolesulfonamides and imidazopyridinesulfonamides, and their application as drugs” (Laboratorios Del Dr. Esteve, S.A., priority 1986, dated 1990):

Key:
[1] = Acute toxicity in mice (Litchfield and Wilcoxon); assay type: in vivo; details: mouse, in vivo, po, administered orally
Protocol: (§1) Method of Litchfield and Wilcoxon (J. T. Litchfield and E. J. Wilcoxon: J. Pharmacol. Exp. Therap., 96, 19-113 (1949)).
(§2) The product is administered orally as a suspension in gum arabic at a concentration of 5% in double-distilled water. The volume administered is 10 - ml/kg. The 50% lethal dose (LD50) is calculated by the method cited.

[2] = test system: gastric acid secretion; assay: Inhibition of gastric acid secretion in Shay rats (Shay's method, pylorus ligation); assay type: in vivo, Male Wistar rats; details: Rattus norvegicus, administered intraduodenally; for ED50: 2 h; for inhibition in vivo at 40 mg/kg: intraduodenal, 2 h after pylorus ligation, read-out: Percentage inhibition of gastric acid secretion
From the text: Shay's method [H. Shay; S. A. Komarov; S. S. Fels; D. Merange: M. Grvenstein; H. Siplet: Gastroenterology, 5, 43 (1945)--F. E. Visscber; P. H. Seay: A. P. Taxelaar; W. Veldkamp; M. J. Vander Brook: J. Pharmac. Exp. Ther., 110, 188 (1954)--"Animal Experiments in Pharmacological Analysis", F. R. Domer: C. C. Thomas, published by Springfield, Ill., U.S.A., 1970, p. 140].
Male Wistar rats weighing 200 to 250 grams are used in this test; they are fasted from the day preceding the day of the test, with free access to water. Groups containing a minimum of 4 animals each are used.
The rats are anesthetized with ethyl ether, a laparotomy is performed on them and their pylorus is ligated; the abdominal incision is then sewn up. The administration of the products, with the vehicle for the control group, is effected intraduodenally (i.d.) before the abdominal incision is sewn up. The dose administered in the first test is 40 mg/kg and the 50% effective dose (ED50), administered intraduodenally, is also determined in a second test. The vehicle used is gum arabic at a concentration of 5% w/v in double-distilled water.
Two hours after ligation of the pylorus, the rats are sacrificed by prolonged anesthesia with ethyl ether and the volume of gastric juice is measured; the total acidity is determined by means of a pH meter equipped with an automatic burette. For each product and each dose tested, the percentage inhibition of gastric acid secretion is determined relative to the control group.

[3] = test system: gastric lesions induced by ethanol; assay: Gastric cytoprotection: inhibition of gastric lesions induced by ethanol; assay type: in vivo, Male Wistar rats; details: 40 mg/kg oral
Protocol: Male Wistar rats weighing 150 to 200 grams are used in this test; they are fasted for 24 hours, but with water "ad libitum". Groups containing a minimum of 5 animals each are used.
At the beginning of the study, the rats receive the products described, or the vehicle in the case of the rats in the control group, by oral administration using a stomach tube. The dose administered for the products described is 40 mg/kg. The vehicle employed is gum arabic at a concentration of 5% w/v in double-distilled water.
Thirty minutes after the treatment, the rats receive 1 ml of absolute ethanol by oral administration using a stomach tube. One hour after the treatment with ethanol, the rats are sacrificed by prolonged anesthesia with ethyl ether, their stomachs are extracted and opened along the greater curvature and the lesions in the stomach mucosa are evaluated. For this evaluation, the hemorrhage points are counted and the size of the necrotic ulcers is measured.
For each product tested, the percentage inhibition of gastric lesions is determined relative to the control group.

[4] = test system: gastric lesions induced by stress due to immobilization and cold; assay: Ulcer-inhibiting activity: inhibition of gastric lesions induced by stress due to immobilization and cold; assay type: in vivo, Male Wistar rats; details: 40 mg/kg oral
Protocol: Male Wistar rats weighing […] to 200 grams are used in this test; they are fasted in individual cages for 24 hours before the study begins, but with water "ad libitum". Groups containing a minimum of 5 animals each are used.
At the start of the study, the rats receive the products described, or alternatively the vehicle in the case of the control group, by oral administration using a stomach tube. The administered dose of the products described is 40 mg/kg. The vehicle used is gum arabic at a concentration of 5% w/v in double-distilled water.
Immediately after the treatment, the rats are introduced into confined enclosures in the form of a plastic tube with a diameter of about 5 cm and a variable length which can be adapted to the size of the rat. One hour after the treatment, the rats, in their enclosures, are placed in a refrigerator at -5° C. for 3 hours. Immediately after exposure to the cold, the rats are killed by prolonged anesthesia with ethyl ether, the stomachs are extracted and opened along the greater curvature and the lesions in the stomach mucosa are evaluated. For this evaluation, the hemorrhage points are counted and the size of the necrotic ulcers is measured.
For each product and each dose tested, the percentage inhibition of gastric lesions is determined relative to the control group.

[5] = test system: mice; assay: Acute toxicity in mice (Litchfield and Wilcoxon); assay type: in vivo; details: administered orally; female
Protocol: as §1, §2

[6] = relative to control (gum arabic)

| SMILES | LD50 ([1]; female) [mg/kg] | LD50 ([1]; male) [mg/kg] | ED50 [2] [mg/kg] | inhibition in vivo at 40 mg/kg [2] [%] | further results |
| --- | --- | --- | --- | --- | --- |
| O=S(=O)(NCCN1CCOCC1)c1nc2ccccc2[nH]1 [Example 6] | 2600 | 3300 |  |  |  |
| O=S(=O)(NCCCN1CCOCC1)c1nc2ccccc2[nH]1 [Example 8, N-[3-(4-Morpholinopropyl)]-1H-benzimidazole-2-sulfonamide] | 6400 | 6400 |  |  |  |
| O=S(=O)(Nc1ccc(Cl)cc1)c1nc2cc(Cl)ccc2[nH]1 [Example 16, 5-Chloro-N-(4-chlorophenyl)-1H-benzimidazoIe-2-sulfonamide] | 1500 | 2000 | 42.6 | 48 |  |
| CCN(CC)CCCC(C)NS(=O)(=O)c1nc2cc(Cl)ccc2[nH]1 (stereo not shown) [Example 18, 5-Chloro-N-(4-diethylamino-1-methylbutyl)-1H-benzimidazole-2-sulfonamide] | 4000 | 2000 | 53.5 | 41 |  |
| CCNS(=O)(=O)c1nc2c([N+](=O)[O-])cccc2[nH]1 [Example 21, N-Ethyl-4-nitro-1H-benzimidazole-2-sulfonamide] | > 1600 | > 1600 |  |  |  |
| O=S(=O)(NCc1ccccn1)c1nc2ccccc2[nH]1 [Example 31, N-(2-Pyridylmethyl)-1H-benzimidazole-2-sulfonamide] | > 6400 | > 6400 |  |  |  |
| NS(=O)(=O)c1nc2cc([N+](=O)[O-])ccc2[nH]1 [Example 34, 5-Nitro-1H-benzimidazole-2-sulfonamide] | > 6400 | > 6400 | 29.9 | 63 |  |
| O=[N+]([O-])c1ccc2[nH]c(S(=O)(=O)NCCCN3CCOCC3)nc2c1 [Example 38, N-[3-(4-Morpholinopropyl)]-5-nitro-1H-benzimidazole-2-sulfonamide] | > 6400 | > 6400 |  |  |  |
| CCN(CC)S(=O)(=O)c1nc2ccc([N+](=O)[O-])cc2n1CC [Example 71, 6-nitro-1,N,N-triethyl-1H-benzimidazole-2-sulfonamide] | 6400 | 6400 |  |  |  |
| O=S1(=O)c2nc3ccccc3n2CCN1CCCN1CCOCC1 [Example 92] | 6400 | 6400 |  |  |  |
| COc1ccc(CCN2CCn3c(nc4ccccc43)S2(=O)=O)cc1OC [Example 99, 3,4-Dihydro-2H-2-[2-(3,4-dimethoxyphenylethyl)]-[1,2,5]-thiadiazino[5,6-a]benzimidazole 1,1-dioxide] | > 3200 | > 3200 |  |  |  |
| CCN1CCn2c(nc3ccc([N+](=O)[O-])cc32)S1(=O)=O [Example 127, 3,4-Dihydro-2H-2-ethyl-7-nitro-[1,2,5]-thiadiazino-[5,6-a]benzimidazole 1,1-dioxide] | > 6400 | > 6400 | 52.4 | 56.3 |  |
| CCN1CCn2c(nc3cc([N+](=O)[O-])ccc32)S1(=O)=O [Example 128, 3,4-Dihydro-2H-2-ethyl-8-nitro-[1,2,5]-thiadiazino-[5,6-a]benzimidazole 1,1-dioxide] | > 3200 | > 2200 |  |  |  |
| CCCCN1CCn2c(nc3cc([N+](=O)[O-])ccc32)S1(=O)=O [Example 133, 2H-2-Butyl-3,4-dihydro-8-nitro-[1,2,5]-thiadiazino-[5,6-a]benzimidazole 1,1-dioxide] | > 3200 | > 3200 | 58.3 | 40 |  |
| CCCCN1CCn2c(nc3ccc([N+](=O)[O-])cc32)S1(=O)=O [Example 134, 2H-2-butyl-3,4-dihydro-7-nitro-[1,2,5]-thiadiazino[5,6-a]benzimidazole 1,1-dioxide] | > 3200 | > 3200 | 20.7 | 70.3 |  |
| O=[N+]([O-])c1ccc2nc3n(c2c1)CCN(CCCN1CCOCC1)S3(=O)=O [Example 142] |  |  | 17.5 | 79.4 | Evaluation of the lesions (x ± standard deviation) [3]: 0; Inhibition of gastric lesions [3, 6]: 100% |
| CCN(CC)CCCC(C)N1CCn2c(nc3ccc([N+](=O)[O-])cc32)S1(=O)=O (stereo not shown) [Example 144, 2H-2-(4-Diethylamino-1-methylbutyl)-3,4-dihydro-7-nitro-[1,2,5,]-thiadiazino[5,6-a]benzimidazole 1,1-dioxide] |  |  | 10 | 93.7 | Inhibition of gastric lesions [4, 6]: 100%; Evaluation of the lesions (x ± standard deviation) ([4]; stress (immobilization and cold), 10 rats): 0 |
| CCN1C(c2ccc([N+](=O)[O-])cc2)=Cn2c(nc3ccc([N+](=O)[O-])cc32)S1(=O)=O [Example 179, 2H-2-Ethyl-7-nitro-3-(4-nitrophenyl)-[1,2,5]-thiadiazino-[5,6-a]benzimidazole 1,1-dioxide] |  | > 6400 |  |  | LD50 [5]: > 6400 mg/kg |
